Test results from patent publication US10765681B2 (Academia Sinica, priority 2016, dated 2020).

melting point | Compound
361 to 363 °C | NC(=O)c1nc(-c2ccc(O)cc2)nc2c1nc(S)n2-c1ccccc1
144 to 146 °C | C=CCn1c(=O)n(-c2ccccc2OC)c2nc(-c3ccc(OCC)cc3)nc(C#N)c21
370.2 to 371.8 °C | COc1ccccc1-n1c(=O)[nH]c2c(C(N)=O)nc(-c3ccc(O)cc3)nc21 [Compound 5b, 2-(4-Hydroxyphenyl)-9-(2-methoxyphenyl)-8-oxopurine-6-carboxamide]
322.8 to 324.3 °C | CCOc1ccc(-c2nc(C(N)=O)c3[nH]c(=O)n(-c4cccc([N+](=O)[O-])c4)c3n2)cc1 [Compound 5l, 2-(4-Ethoxyphenyl)-9-(3-nitrophenyl)-8-oxopurine-6-carboxamide]
288 to 290 °C | CCOc1ccc(-c2nc(C(N)=O)c3[nH]c(=O)n(-c4cc(C(F)(F)F)cc(C(F)(F)F)c4)c3n2)cc1 [Compound 5m, 9-(3,5-Bis(trifluoromethyl)phenyl)-2-(4-ethoxyphenyl)-8-oxopurine-6-carboxamide]
319 to 321 °C | COc1ccc(-c2nc(C(N)=O)c3[nH]c(=O)n(-c4ccccc4OC)c3n2)cc1O [Compound 5n, 2-(3-Hydroxy-4-methoxyphenyl)-9-(2-methoxyphenyl)-8-oxopurine-6-carboxamide]
321.2 to 321.8 °C (dec.) | CCOc1ccc(-c2nc(C(N)=O)c3nc(S)n(-c4ccccc4)c3n2)cc1 [Compound 10a, 2-(4-Ethoxyphenyl)-9-phenyl-8-mercaptopurine-6-carboxamide]
299 to 301 °C | CCOc1ccc(-c2nc(C(N)=O)c3nc(S)n(-c4cc(C(F)(F)F)cc(C(F)(F)F)c4)c3n2)cc1 [Compound 10c, 9-(3,5-Bis(trifluoromethyl)phenyl)-2-(4-ethoxyphenyl)-8-mercaptopurine-6-carboxamide]
309.7 to 311 °C (dec.) | CCOc1ccc(-c2nc(C(N)=O)c3nc(SC)n(-c4ccccc4)c3n2)cc1 [Compound 11a, 2-(4-Ethoxyphenyl)-8-(methylthio)-9-phenylpurine-6-carboxamide]
288 to 290 °C | CCOc1ccc(-c2nc(C#N)c3[nH]c(=O)n(-c4ccccc4OC)c3n2)cc1 [Compound 12a, 2-(4-Ethoxyphenyl)-9-(2-methoxyphenyl)-8-oxopurine-6-carbonitrile]
297 to 299 °C | CCOc1ccc(-c2nc(C#N)c3[nH]c(=O)n(-c4cccc(C(=O)OC)c4)c3n2)cc1 [Compound 12c, 2-(4-Ethoxyphenyl)-9-(3-methoxycarbonylphenyl)-8-oxopurine-6-carbonitrile]
257 to 259 °C | CCOc1ccc(-c2nc(C(=N)NO)c3[nH]c(=O)n(-c4cccc(C(=O)OC)c4)c3n2)cc1 [Compound 14c, 2-(4-Ethoxyphenyl)-9-(3-methoxycarbonylphenyl)-8-oxopurine-6-(N-hydroxy)carboximidamide]
235 to 237 °C | CCOc1ccc(-c2nc(C#N)c3c(n2)n(-c2ccccc2OC)c(=O)n3C)cc1 [Compound 15a, 2-(4-Ethoxyphenyl)-9-(2-methoxyphenyl)-7-methyl-8-oxopurine-6-carbonitrile]
164 to 166 °C | CCOc1ccc(-c2nc(C#N)c3c(n2)n(-c2ccccc2OC)c(=O)n3Cc2ccccc2)cc1 [Compound 15c, 7-Benzyl-2-(4-ethoxyphenyl)-9-(2-methoxyphenyl)-8-oxopurine-6-carbonitrile]
270 to 272 °C | CCOC(=O)Oc1nc2c(C#N)nc(-c3ccc(OCC)cc3)nc2n1-c1ccccc1OC [Compound 17a, 6-Cyano-2-(4-ethoxyphenyl)-9-(2-methoxyphenyl)purin-8-yl ethyl carbonate]
88 to 90 °C | C=CCn1oc(=O)nc1-c1nc(-c2ccc(OCC)cc2)nc2c1n(CC=C)c(=O)n2-c1ccccc1OC [Compound 25a, 2-Allyl-3-[7-allyl-2-(4-ethoxyphenyl)-9-(2-methoxyphenyl)-8-oxopurin-6-yl]-1,2,4-oxadiazol-5-one]
